Source: ChEMBL document CHEMBL1828557, “Biophysical and physicochemical methods differentiate highly ligand-efficient human D-amino acid oxidase inhibitors” (Eur J Med Chem, 2011)
In brackets after ≈: the same amount, converted by molar mass.

How the values were obtained:
[1] = Kinetic solubility of the compound in 0.01 M phosphate buffered saline at pH 7.4 assessed as minimum solubility after 2 hrs; format: physicochemical; conditions: read-out: Kinetic_solubility
[2] = target: T1, D-aspartate oxidase (Bos taurus, UniProt P31228); assay: Inhibition of bovine recombinant DASPO expressed in Escherichia coli preincubated for 15 mins by fluorescence assay
T1 sequence (P31228 whole entry): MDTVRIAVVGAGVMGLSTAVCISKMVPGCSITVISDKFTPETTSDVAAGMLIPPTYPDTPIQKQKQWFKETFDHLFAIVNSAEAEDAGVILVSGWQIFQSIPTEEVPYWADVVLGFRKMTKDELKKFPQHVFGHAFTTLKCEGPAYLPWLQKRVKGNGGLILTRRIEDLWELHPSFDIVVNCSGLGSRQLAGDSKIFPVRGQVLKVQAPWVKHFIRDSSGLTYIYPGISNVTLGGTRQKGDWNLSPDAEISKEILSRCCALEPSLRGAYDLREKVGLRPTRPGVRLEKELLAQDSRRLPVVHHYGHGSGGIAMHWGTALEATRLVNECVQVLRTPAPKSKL

[3] = Dissociation constant, pKa of the compound by dip probe absorption spectroscopy technique; format: physicochemical
[4] = Cmax in Swiss mouse brain at 10 mg/kg, po; format: ADME, organism-based; design: dose 10 mg/kg, route oral
[5] = Oral bioavailability (0 to last) in Wistar rat plasma at 10 mg/kg; format: ADME, organism-based
[6] = Plasma clearance in Wistar rat plasma at 1 mg/kg, iv; format: ADME, organism-based; design: dose 1 mg/kg, route intravenous
[7] = Intrinsic clearance in human liver microsomes; format: ADME, Microsome
[8] = Ratio of drug level (0 to last) in brain to plasma in Wistar rat at 10 mg/kg, po; format: ADME, organism-based; design: dose 10 mg/kg, route oral; conditions: brain and plasma, read-out: BPR
[9] = Octanol-water partition coefficient, log P of the neutral compound by pH-metric method; format: physicochemical
[10] = Terminal half life in Swiss mouse brain at 10 mg/kg, po; format: ADME, organism-based; design: dose 10 mg/kg, route oral; conditions: read-out: beta t1/2 (converted)
[11] = Plasma clearance in Swiss mouse plasma at 1 mg/kg, iv; format: ADME, organism-based; design: dose 1 mg/kg, route intravenous
[12] = Volume of distribution in Wistar rat plasma at 1 mg/kg, iv; format: ADME, organism-based; design: dose 1 mg/kg, route intravenous
[13] = system: Brain; assay: AUC (0 to last) in Wistar rat brain at 10 mg/kg, po; format: ADME, organism-based; design: dose 10 mg/kg, route oral, time 0 - last; conditions: in vivo
[14] = target: Voltage-gated inwardly rectifying potassium channel KCNH2 (Homo sapiens, UniProt Q12809); assay: Inhibition of human ERG expressed in HEK293 cells by whole cell voltage patch clamp technique; format: cell-based
Chain of Voltage-gated inwardly rectifying potassium channel KCNH2 (Q12809 whole entry): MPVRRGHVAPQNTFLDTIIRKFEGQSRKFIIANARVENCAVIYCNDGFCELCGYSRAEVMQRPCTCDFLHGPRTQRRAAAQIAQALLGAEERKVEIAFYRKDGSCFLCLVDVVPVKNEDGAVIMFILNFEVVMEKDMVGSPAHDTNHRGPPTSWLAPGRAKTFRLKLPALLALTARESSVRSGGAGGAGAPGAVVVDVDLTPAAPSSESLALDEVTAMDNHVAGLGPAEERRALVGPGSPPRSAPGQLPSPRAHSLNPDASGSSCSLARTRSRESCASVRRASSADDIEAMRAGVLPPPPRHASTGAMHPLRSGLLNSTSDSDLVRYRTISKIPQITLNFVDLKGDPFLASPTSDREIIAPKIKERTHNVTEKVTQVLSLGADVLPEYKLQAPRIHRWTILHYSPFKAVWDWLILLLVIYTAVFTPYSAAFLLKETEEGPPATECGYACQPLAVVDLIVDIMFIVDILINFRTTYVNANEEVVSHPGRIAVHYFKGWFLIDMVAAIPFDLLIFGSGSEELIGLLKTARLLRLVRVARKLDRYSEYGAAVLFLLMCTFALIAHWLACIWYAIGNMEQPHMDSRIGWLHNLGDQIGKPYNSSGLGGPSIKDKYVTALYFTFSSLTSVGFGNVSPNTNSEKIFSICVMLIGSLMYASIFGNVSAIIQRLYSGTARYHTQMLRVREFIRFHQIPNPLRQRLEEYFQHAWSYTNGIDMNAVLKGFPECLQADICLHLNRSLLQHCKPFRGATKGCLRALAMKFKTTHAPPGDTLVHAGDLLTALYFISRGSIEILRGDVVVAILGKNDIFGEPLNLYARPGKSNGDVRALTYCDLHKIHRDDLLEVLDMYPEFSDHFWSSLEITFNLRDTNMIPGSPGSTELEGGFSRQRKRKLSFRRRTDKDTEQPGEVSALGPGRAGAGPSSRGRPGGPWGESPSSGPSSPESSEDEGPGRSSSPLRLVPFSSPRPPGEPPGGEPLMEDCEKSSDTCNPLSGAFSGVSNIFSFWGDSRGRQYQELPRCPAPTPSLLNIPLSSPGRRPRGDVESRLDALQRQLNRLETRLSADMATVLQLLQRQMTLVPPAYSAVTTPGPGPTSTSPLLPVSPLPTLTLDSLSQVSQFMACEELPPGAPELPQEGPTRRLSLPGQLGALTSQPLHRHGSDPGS

[15] = Apparent permeability from apical to basolateral side of MDCK cells expressing MDR1 by LC-MS/MS analysis; format: ADME, cell-based, Canis lupus familiaris; conditions: dog
[16] = Tmax in Swiss mouse brain at 10 mg/kg, po; format: ADME, organism-based; design: dose 10 mg/kg, route oral
[17] = Cmax in Wistar rat brain at 10 mg/kg, po; format: ADME, organism-based; design: dose 10 mg/kg, route oral
[18] = Oral bioavailability (0 to last) in Swiss mouse plasma at 10 mg/kg; format: ADME, organism-based
[19] = target: T2, D-amino-acid oxidase (Homo sapiens, UniProt P14920)
Target sequence in this assay (P14920 whole entry, looked up): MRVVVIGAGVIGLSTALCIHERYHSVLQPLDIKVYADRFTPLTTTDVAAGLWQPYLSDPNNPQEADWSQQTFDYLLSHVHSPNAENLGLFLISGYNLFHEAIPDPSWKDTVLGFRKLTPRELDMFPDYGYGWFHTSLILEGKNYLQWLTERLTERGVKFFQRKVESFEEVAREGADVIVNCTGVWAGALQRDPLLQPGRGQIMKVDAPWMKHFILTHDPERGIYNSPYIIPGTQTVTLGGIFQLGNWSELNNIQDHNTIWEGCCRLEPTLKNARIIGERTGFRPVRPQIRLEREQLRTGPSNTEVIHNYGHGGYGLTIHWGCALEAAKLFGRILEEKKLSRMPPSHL

[20] = Apparent permeability across apical to basolateral side in human Caco2 cells by LC-MS/MS analysis; format: ADME, cell-based; conditions: Caco-2
[21] = Ratio of drug level (0 to last) in brain to plasma in Swiss mouse at 10 mg/kg, po; format: ADME, organism-based; design: dose 10 mg/kg, route oral; conditions: brain and plasma, read-out: BPR
[22] = Tmax in Wistar rat brain at 10 mg/kg, po; format: ADME, organism-based; design: dose 10 mg/kg, route oral
[23] = system: Brain; assay: AUC (0 to last) in Swiss mouse brain at 10 mg/kg, po; format: ADME, organism-based; design: time 0 - last, dose 10 mg/kg, route oral; conditions: in vivo
[24] = Kinetic solubility of the compound in 0.01 M phosphate buffered saline at pH 7.4 assessed as maximum solubility after 2 hrs; format: physicochemical; conditions: read-out: Kinetic_solubility
[25] = Thermodynamic solubility of the compound in phosphate buffer at pH 7.4 after 24 hrs by HPLC analysis; format: physicochemical; conditions: read-out: Therm_solubility
[26] = Volume of distribution in Swiss mouse plasma at 1 mg/kg, iv; format: ADME, organism-based; design: dose 1 mg/kg, route intravenous
[27] = Terminal half life in Wistar rat brain at 10 mg/kg, po; format: ADME, organism-based; design: dose 10 mg/kg, route oral; conditions: read-out: beta t1/2 (converted)
[28] = target: T2, D-amino-acid oxidase; assay: Binding affinity to human recombinant DAAO by kinetic study scintillation proximity assay
Target sequence in this assay (P14920 whole entry): as the sequence (P14920 whole entry, looked up) above

[29] = target: T2, D-amino-acid oxidase; assay: Inhibition of human DAAO
Target sequence in this assay (P14920 whole entry): as the sequence (P14920 whole entry, looked up) above

[30] = target: T2, D-amino-acid oxidase; assay: Binding affinity to human recombinant DAAO by isothermal titration calorimeter analysis
Target sequence in this assay (P14920 whole entry): as the sequence (P14920 whole entry, looked up) above

[31] = target: T2, D-amino-acid oxidase; assay: Binding affinity to human recombinant DAAO by steady state study scintillation proximity assay
Target sequence in this assay (P14920 whole entry): as the sequence (P14920 whole entry, looked up) above

[32] = target: T2, D-amino-acid oxidase; assay: Inhibition of human recombinant DAAO expressed in Escherichia coli assessed as H2O2 production from D-serine degradation after 30 mins by fluorescence assay
Target sequence in this assay (P14920 whole entry): as the sequence (P14920 whole entry, looked up) above

[33] = Oral bioavailability (0 to last) in Swiss mouse plasma at 30 mg/kg; format: ADME, organism-based
[34] = Cmax in Swiss mouse brain at 30 mg/kg, po; format: ADME, organism-based; design: dose 30 mg/kg, route oral
[35] = Cmax in Wistar rat brain at 30 mg/kg, po; format: ADME, organism-based; design: dose 30 mg/kg, route oral
[36] = Tmax in Swiss mouse brain at 30 mg/kg, po; format: ADME, organism-based; design: dose 30 mg/kg, route oral
[37] = Plasma clearance in Swiss mouse plasma at 10 mg/kg, iv; format: ADME, organism-based; design: dose 10 mg/kg, route intravenous
[38] = Plasma clearance in Wistar rat plasma at 10 mg/kg, iv; format: ADME, organism-based; design: dose 10 mg/kg, route intravenous
[39] = Terminal half life in Wistar rat brain at 30 mg/kg, po; format: ADME, organism-based; design: dose 30 mg/kg, route oral; conditions: read-out: beta t1/2 (converted)
[40] = system: Brain; assay: AUC (0 to last) in Swiss mouse brain at 30 mg/kg, po; format: ADME, organism-based; design: time 0 - last, dose 30 mg/kg, route oral; conditions: in vivo
[41] = Terminal half life in Swiss mouse brain at 30 mg/kg, po; format: ADME, organism-based; design: dose 30 mg/kg, route oral; conditions: read-out: beta t1/2 (converted)
[42] = Volume of distribution in Swiss mouse plasma at 10 mg/kg, iv; format: ADME, organism-based; design: dose 10 mg/kg, route intravenous
[43] = Ratio of drug level (0 to last) in brain to plasma in Swiss mouse at 30 mg/kg, po; format: ADME, organism-based; design: dose 30 mg/kg, route oral; conditions: brain and plasma, read-out: BPR
[44] = Ratio of drug level (0 to last) in brain to plasma in Wistar rat at 30 mg/kg, po; format: ADME, organism-based; design: dose 30 mg/kg, route oral; conditions: brain and plasma, read-out: BPR
[45] = Oral bioavailability (0 to last) in Wistar rat plasma at 30 mg/kg; format: ADME, organism-based
[46] = Volume of distribution in Wistar rat plasma at 10 mg/kg, iv; format: ADME, organism-based; design: dose 10 mg/kg, route intravenous
[47] = Tmax in Wistar rat brain at 30 mg/kg, po; format: ADME, organism-based; design: dose 30 mg/kg, route oral
[48] = system: Brain; assay: AUC (0 to last) in Wistar rat brain at 30 mg/kg, po; format: ADME, organism-based; design: time 0 - last, dose 30 mg/kg, route oral; conditions: in vivo

| SMILES | solubility kinetic at 2 h [1] [µM] | IC50 [2] [nM] | pKa [3] | Cmax [4] [ng/mL] | bioavailability [5] [%] | clearance [6] [mL/min/kg] | microsomal CLint [7] [µL/min/mg] | Kp [8] | logP [9] | half-life [10] [min] | clearance [11] [mL/min/kg] | Vd [12] [L/kg] | Tmax [16] [min] | Cmax [17] [ng/mL] | bioavailability [18] [%] | T1/2 [19] [min] | Tmax [22] [min] | solubility kinetic at 2 h [24] [µM] | solubility thermodynamic at 24 h [25] [µM] | Vd [26] [L/kg] | further results |
| --- | --- | --- | --- | --- | --- | --- | --- | --- | --- | --- | --- | --- | --- | --- | --- | --- | --- | --- | --- | --- | --- |
| Oc1noc2cc(Cl)ccc12 | 100 (≈ 17 µg/mL) | > 10000 | 4.07 | 228 | 28 | 5 | 4.7 | 0.04 | 2.68 | 60 | 10 | 0.3 | 15 | 319 | 29 | 10 | 30 | > 100 | 433 (≈ 73.4 µg/mL) | 0.2 | AUClast [13]: 340 ng·h/mL; IC50 [14]: > 10000 nM; Papp A→B [15]: 75 ×10⁻⁶ cm/s; Papp A→B [20]: 77 ×10⁻⁶ cm/s; Kp [21]: 0.03; AUClast [23]: 139 ng·h/mL; half-life [27]: 120 min |
| O=C(O)c1cc2sccc2[nH]1 | 100 (≈ 16.7 µg/mL) | > 10000 | 3.88 | 336 | 100 | 9 |  | 0.05 | 2.11 | 60 | 21 | 2.1 | 15 | 648 | 56 | 10 | 60 | > 100 | > 460 | 0.4 | Kd [28]: 6 nM; IC50 [29]: 145 nM; Kd [30]: 19 nM; AUClast [13]: 1940 ng·h/mL; Papp A→B [15]: 6 ×10⁻⁶ cm/s; Kd [31]: 33 nM; Papp A→B [20]: 47 ×10⁻⁶ cm/s; IC50 [32]: 11.9 nM; Kp [21]: 0.06; AUClast [23]: 302 ng·h/mL; half-life [27]: 120 min |
| O=c1[nH]c2cccc(Cl)c2cc1O | 17 (≈ 3.33 µg/mL) | > 10000 | 7.6 | 11.7 | 1.4 | 30 | 308 |  | 2.57 |  | 44 | 0.3 | 15 |  | 0.65 | > 120 |  | 55 (≈ 10.8 µg/mL) | 31 (≈ 6.06 µg/mL) | 0.3 |  |
| O=c1[nH]c2ccc(F)c(Cl)c2cc1O | 3 (≈ 0.641 µg/mL) | > 10000 | 7.33 | 12.1 | 2 | 28 | 183 |  | 2.7 |  | 45 | 0.3 | 15 | 17.9 | 3 |  | 30 | 65 (≈ 13.9 µg/mL) | 71 (≈ 15.2 µg/mL) | 0.5 |  |

The next lines start with results.

| solubility kinetic at 2 h [1] [µM] | IC50 [2] [nM] | pKa [3] | Cmax [4] [ng/mL] | bioavailability [5] [%] | clearance [6] [mL/min/kg] | microsomal CLint [7] [µL/min/mg] | Kp [8] | logP [9] | half-life [10] [min] | clearance [11] [mL/min/kg] | Vd [12] [L/kg] | Tmax [16] [min] | Cmax [17] [ng/mL] | bioavailability [18] [%] | T1/2 [19] [min] | Tmax [22] [min] | solubility kinetic at 2 h [24] [µM] | solubility thermodynamic at 24 h [25] [µM] | Vd [26] [L/kg] | SMILES | further results |
| --- | --- | --- | --- | --- | --- | --- | --- | --- | --- | --- | --- | --- | --- | --- | --- | --- | --- | --- | --- | --- | --- |
| 100 (≈ 12.6 µg/mL) | > 10000 | 3.59 |  |  |  |  |  | 0.45 |  |  |  |  |  |  |  |  | > 100 | > 460 |  | Cc1cc(C(=O)O)n[nH]1 | bioavailability [33]: 33%; Cmax [34]: 359 ng/mL; Cmax [35]: 112 ng/mL; Tmax [36]: 30 min; clearance [37]: 10 mL/min/kg; clearance [38]: 11 mL/min/kg; half-life [39]: 180 min; Kd [28]: 900 nM; AUClast [40]: 831 ng·h/mL; half-life [41]: 60 min; Vd [42]: 0.4 L/kg; IC50 [29]: 910 nM; Kd [30]: 617 nM; Kp [43]: 0.1; Kp [44]: 0.04; bioavailability [45]: 97%; Vd [46]: 3.5 L/kg; Tmax [47]: 60 min; IC50 [32]: 473 nM; AUClast [48]: 631 ng·h/mL |
| 100 (≈ 15.1 µg/mL) | > 10000 | 4.09 | 487 | 52 | 4 |  | 0.08 | 1.56 | 30 | 15 | 0.4 | 15 | 889 | 42 | 10 | 30 | > 100 | 428 (≈ 64.7 µg/mL) | 0.8 | O=C(O)c1cc2occc2[nH]1 | AUClast [13]: 1520 ng·h/mL; IC50 [14]: > 10000 nM; Kp [21]: 0.08; AUClast [23]: 371 ng·h/mL; half-life [27]: 120 min |
